Assay [1] deals with T1, PfHsp70-z (Plasmodium falciparum, UniProt Q8IC01). Description: Suppression of heat-induced aggregation of MDH (chaperone function). As to conditions: 48 °C; for effect on chaperone activity (MDH aggregation): 5 mM ADP/ATP. The class given is biochemical. How it is done:
(§1) The chaperone function of parasite Hsp70s was investigated by monitoring heat-induced aggregation of a model protein, malate dehydrogenase (MDH) from porcine heart (Sigma-Aldrich), as previously described, with minor modifications. Before conducting the assays, we first established that both purified preparations of PfHsp70-1 and PfHsp70-z were heat-stable at 48 °C. After this, we then investigated the effects of the chaperones (PfHsp70-1/PfHsp70-z) on the heat-induced aggregation of MDH. To determine the effects of EGCG on the chaperone function of the two proteins, the assay was repeated in the presence of 2.5 µM of EGCG. EGCG was used at this concentration (2.5 µM) because this was the lowest concentration at which it inhibited the function of the chaperones. […] For statistical analysis, a one-way ANOVA test was conducted using GraphPad Prism 6 (San Diego, CA, USA).

For assay [2], the target named is T2, PfHsp70-1 (Plasmodium falciparum, UniProt Q8IB24). The assay is described as above. Format: biochemical. The note with it: 48 °C; for effect on chaperone activity (MDH aggregation): 5 mM ADP/ATP. How it is done: as §1
T2 sequence (Q8IB24 entry or part of it): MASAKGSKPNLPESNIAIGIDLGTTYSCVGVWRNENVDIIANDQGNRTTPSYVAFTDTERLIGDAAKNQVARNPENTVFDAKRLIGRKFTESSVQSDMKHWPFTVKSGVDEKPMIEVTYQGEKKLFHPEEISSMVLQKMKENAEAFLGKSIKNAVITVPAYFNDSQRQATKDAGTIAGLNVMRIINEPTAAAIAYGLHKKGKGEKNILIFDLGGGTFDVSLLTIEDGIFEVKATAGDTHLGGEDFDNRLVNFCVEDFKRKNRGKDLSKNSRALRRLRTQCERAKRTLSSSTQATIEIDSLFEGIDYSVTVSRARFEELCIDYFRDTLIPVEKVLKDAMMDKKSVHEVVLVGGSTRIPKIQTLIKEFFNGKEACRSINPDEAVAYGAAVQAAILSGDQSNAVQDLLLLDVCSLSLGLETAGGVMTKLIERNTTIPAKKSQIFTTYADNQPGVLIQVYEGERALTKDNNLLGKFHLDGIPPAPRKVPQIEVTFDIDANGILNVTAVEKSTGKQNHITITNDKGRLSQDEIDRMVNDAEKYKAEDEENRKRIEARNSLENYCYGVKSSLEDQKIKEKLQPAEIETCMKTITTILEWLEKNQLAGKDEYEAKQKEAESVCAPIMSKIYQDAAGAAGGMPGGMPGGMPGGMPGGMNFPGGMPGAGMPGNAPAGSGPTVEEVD
In assay [3] the target is T2, PfHsp70-1. Description: SPR binding affinity to immobilised PfHsp70-1. As to conditions: EGCG vs ATP binding to PfHsp70-1. How it is done:
(§2) The binding affinity of EGCG for the two P. falciparum Hsp70s was determined using a Bio-Rad ProteOn XPR36 system (Hercules, CA, USA), as previously described. Briefly, PfHsp70-1, PfHsp70-1NBD, and PfHsp70-z (as ligands) were separately immobilized onto an HTE chip at concentrations of 0.5 μg/mL and 1 μg/mL, respectively, in order to validate the data. […] In order to determine the association of EGCG with the respective ligand, the EGCG stock solution was prepared in deionised water. Aliquots of EGCG were prepared at final concentrations of 0, 125, 250, 500, 1000, and 2000 nM and injected at 100 μL/min into each horizontal channel. Association was allowed for 2 min and dissociation was monitored for 8 min. Data collected was double referenced using a buffer blank (buffer without EGCG) and a channel in which protein was excluded. Steady-state equilibrium constant data were processed and analysed using BioRad ProteOn Manager Version 3.1.0.6 (Hercules, CA, USA) and GE Healthcare Biosciences BIA evaluation Version 4.1.1 software (Uppsala, Sweden).

For assay [4], the target named is T1, PfHsp70-z. Put plainly: SPR binding affinity to immobilised PfHsp70-z. The note with it: EGCG vs ATP binding to PfHsp70-z. How it is done: as §2
A general note: Surface plasmon resonance follows binding to a sensor surface in real time, without labels.

Assay [5] has as its target T1, PfHsp70-z. Put plainly: Tryptophan/tyrosine fluorescence, tertiary conformation. As to conditions: EGCG 0–5 μM. How it is done:
(§3) We further exposed the two proteins to varying amounts (0–5 µM) of EGCG and monitored he perturbation of the tertiary structural conformations of the proteins using both tyrosine and tryptophan fluorescence, as previously described. The respective recombinant protein (PfHsp70-1 of PfHsp70-z) at a final concentration of 0.45 μg/mL was incubated in assay buffer A (25 mM HEPES-KOH pH 7.5, 100 mM KCl, 10 mM MgOAc) at 20 °C either in the absence or presence of variable EGCG levels (0–5 μM). […] Tryptophan fluorescence spectra were recorded between 300 nm and 400 nm after initial excitation at 295 nm using a JASCO FP-6300 spectrofluorometer (Dunmow, UK). The combined fluorescence of tyrosine and tryptophan was monitored after initial excitation at 285 nm. Subsequently, fluorescence was monitored at wavelengths between 300 nm and 400 nm using a JASCO FP-6300 spectrofluorometer. The resultant spectra were averaged for least 15 scans and processed after subtraction of the baseline scan (buffer in which protein was excluded). A control consisting of a buffer containing EGCG, but lacking protein was used to account for baseline fluorescence.

The target in assay [6] is T2, PfHsp70-1. The description is as above. The note with it: EGCG 0–5 μM. How it is done:
as §3

A further assay concerns P. falciparum 3D7. Put plainly: Antiplasmodial pLDH growth inhibition assay. The class given is cell-based. As to conditions: Plasmodium falciparum. How it is done: P. falciparum 3D7 parasites were grown and maintained in continuous culture, as previously described, with minor modifications. The growth of P. falciparum 3D7-infected erythrocytes subjected to treatment with varying amounts (0, 0.156, 0.3125, 0.625, 1.25, 2.5, and 5 μM) of EGCG was monitored using the P. falciparum lactate dehydrogenase (pLDH) method, as previously described. As a control, Chloroquine, a known antimalarial drug, was used as a positive control in the assay. Serially-diluted EGCG was added to each culture batch. Uninfected erythrocytes that were similarly treated with EGCG were included to cater for possible lysis of erythrocytes exposed to EGCG. A blank consisting of media and EGCG was also set up. P. falciparum 3D7-infected erythrocytes that were not exposed to EGCG treatment were used as the viability control, representing ‘100% growth’. Analysis of the growth inhibition assay data was carried out using GraphPad Prism 6 (San Diego, CA, USA). The assay was repeated three times.

Assay [7] addresses T1, PfHsp70-z. Put plainly: Basal ATPase activity, colourimetric Pi release. The class given is biochemical. How it is done:
(§4) The basal ATPase activities of the parasite Hsp70s was assessed by a colourimetric-based method, as previously described. Briefly, 0.4 µM of recombinant proteins (PfHsp70-1/PfHsp70-z) was incubated in buffer HKMD (10 mM HEPES-KOH pH 7.5, 100 mM KCl, 2 mM MgCl2, 0.5 mM DTT) at 37 °C. […] The released inorganic phosphate was detected by adding 1.25% ammonium molybdate and 9% ascorbic acid and monitored using a M3 SpectraMax (Molecular Devices, Sunnyvale, CA, USA) spectrophotometer at 660 nm. To determine the effect of EGCG on the ATPase activity of parasite Hsp70s, the assay was repeated in the presence of varying amounts (0–5 µM) of EGCG.

Assay [8] deals with T2, PfHsp70-1. Put plainly: Basal ATPase activity, colourimetric Pi release. The class given is biochemical. How it is done:
as §4

Like-named read-outs stand apart in the source and are kept apart here.

T1 sequence (Q8IC01 entry or part of it): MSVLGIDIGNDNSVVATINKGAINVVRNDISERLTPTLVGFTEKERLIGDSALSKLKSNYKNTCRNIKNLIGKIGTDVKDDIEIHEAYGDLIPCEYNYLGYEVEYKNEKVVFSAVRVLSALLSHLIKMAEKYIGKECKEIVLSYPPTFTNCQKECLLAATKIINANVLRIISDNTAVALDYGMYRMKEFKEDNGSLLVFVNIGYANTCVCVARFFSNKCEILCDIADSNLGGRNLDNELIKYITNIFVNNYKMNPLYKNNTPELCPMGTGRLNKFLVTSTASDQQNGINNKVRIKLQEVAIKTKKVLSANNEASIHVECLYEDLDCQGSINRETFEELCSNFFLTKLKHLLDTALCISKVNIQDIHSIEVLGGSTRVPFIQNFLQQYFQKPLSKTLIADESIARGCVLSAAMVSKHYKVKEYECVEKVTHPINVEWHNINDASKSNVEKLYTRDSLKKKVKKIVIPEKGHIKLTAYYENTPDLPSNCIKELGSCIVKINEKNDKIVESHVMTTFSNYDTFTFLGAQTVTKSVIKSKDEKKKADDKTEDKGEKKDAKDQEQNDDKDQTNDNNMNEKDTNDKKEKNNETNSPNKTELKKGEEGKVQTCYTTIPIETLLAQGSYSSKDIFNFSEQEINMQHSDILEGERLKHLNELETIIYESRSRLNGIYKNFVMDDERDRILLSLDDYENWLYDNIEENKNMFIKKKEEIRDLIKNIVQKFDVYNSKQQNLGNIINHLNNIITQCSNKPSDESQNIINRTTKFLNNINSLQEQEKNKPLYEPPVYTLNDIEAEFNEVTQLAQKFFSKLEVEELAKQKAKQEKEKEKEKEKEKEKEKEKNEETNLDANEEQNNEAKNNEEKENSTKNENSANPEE

For the molecule `Nc1ncnc2c1ncn2[C@@H]1O[C@H](COP(=O)(O)OP(=O)(O)O)[C@@H](O)[C@H]1O` [ADP], the “effect on chaperone activity (MDH aggregation)” value on PfHsp70-z [1] and on PfHsp70-1 [2] was “did not alter the chaperone activity” throughout.

On to `Nc1ncnc2c1ncn2[C@@H]1O[C@H](COP(=O)(O)OP(=O)(O)OP(=O)(O)O)[C@@H](O)[C@H]1O` [ATP], for which the entries for the “effect on chaperone activity (MDH aggregation)” value on PfHsp70-z [1] and on PfHsp70-1 [2] were “not affecting the activity” and “did inhibit the activity”, respectively.

For the molecule `O=C(O[C@@H]1Cc2c(O)cc(O)cc2O[C@@H]1c1cc(O)c(O)c(O)c1)c1cc(O)c(O)c(O)c1` [EGCG, (−)-Epigallocatechin-3-gallate], the “fold higher affinity than ATP” value at PfHsp70-1 [3] and at PfHsp70-z [4] was “approximately 10 fold” throughout. The “shift of peak wavelength, tryptophan and tyrosine fluorescence” value on PfHsp70-z [5] and on PfHsp70-1 [6] was “red shift” in each case. Moreover, the IC50 in the assay with P. falciparum 3D7 (3D7, blood stages, pLDH, read-out: IC50 parasite growth) was 2900 nM. Moreover, the values for the Ki at PfHsp70-z [7] and at PfHsp70-1 [8] were 2340 nM and 1720 nM, respectively. The Vmax on PfHsp70-z [7] (EGCG 0.156 μM) is 20.58 (±0.5) nmol/min/mg; at PfHsp70-z [7] (EGCG 0.3125 μM) it was 18.46 (±0.3) nmol/min/mg; on PfHsp70-z [7] (EGCG 0.625 μM), 19.66 (±0.5) nmol/min/mg; at PfHsp70-z [7] (EGCG 1.25 μM), 21.26 (±0.9) nmol/min/mg; on PfHsp70-z [7] (EGCG 2.5 μM) it was 18.88 (±0.6) nmol/min/mg; at PfHsp70-z [7] (EGCG 5.0 μM), 17.57 (±0.3) nmol/min/mg. For the same molecule, the Vmax was 28.22 (±1.5) nmol/min/mg on PfHsp70-1 [8] (EGCG 0.156 μM); 29.03 (±0.7) nmol/min/mg at PfHsp70-1 [8] (EGCG 0.3125 μM); 28.40 (±0.95) nmol/min/mg at PfHsp70-1 [8] (EGCG 0.625 μM); 27.47 (±2.01) nmol/min/mg on PfHsp70-1 [8] (EGCG 1.25 μM); 29.04 (±0.6) nmol/min/mg at PfHsp70-1 [8] (EGCG 2.5 μM); 30.06 (±0.5) nmol/min/mg on PfHsp70-1 [8] (EGCG 5.0 μM). The “effect on capability to suppress heat-induced aggregation of MDH” value at PfHsp70-z [1] (2.5 µM EGCG) and on PfHsp70-1 [2] (2.5 µM EGCG) was “abrogated” each time. For the same molecule, the “lowest concentration at which it inhibited the function of the chaperones” value at PfHsp70-z [1] (MDH aggregation) and at PfHsp70-1 [2] (MDH aggregation) was 2.5 µM throughout.

Take `CCN(CC)CCCC(C)Nc1ccnc2cc(Cl)ccc12` (stereo not shown) [chloroquine]: the IC50 in the assay with P. falciparum 3D7 (3D7, read-out: IC50 parasite growth) was found to be 8.5 nM.

A word on the IC50: it is the concentration at which inhibition is half-maximal. Usually Ki stands for a measure of affinity in units of concentration, obtained from inhibition or displacement.

Values taken from article PMC6149709, “(−)-Epigallocatechin-3-Gallate Inhibits the Chaperone Activity of Plasmodium falciparum Hsp70 Chaperones and Abrogates Their Association with Functional Partners” (Molecules : A Journal of Synthetic Chemistry and Natural …, 2017).
